# Results published in PubChem BioAssay AID830 (PCMD, 2007).
# Results filed as inconclusive are left out.
# Target: Cathepsin B (Homo sapiens) (UniProt P07858)
# Test: potency determination for CTSB inhibitors, concentration-dependent titration, enzymatic biochemical, actives identified in pooled-sample high-throughput screen (AID 830)
# Settings: purified cathepsin B enzyme activity, signal read-out
row,Structure (SMILES),IC50 [nM]
1,Nc1nc2n(n1)C1(CCCCC1)C1=C(CCCC1)N2,12900
2,Nc1cc(OC(=O)c2cccs2)nn1S(=O)(=O)c1ccccc1,247
3,O=S(=O)(/N=S1/CC=CCN1S(=O)(=O)c1ccccc1)c1ccccc1 (stereo unspecified),9390
4,Cc1ccc(S(=O)(=O)n2nc(OC(=O)c3cccs3)cc2N)cc1,1990
5,Cc1ccc(S(=O)(=O)n2nc(OC(=O)c3ccco3)cc2N)cc1,1750
6,Nc1cc(OC(=O)c2ccco2)nn1S(=O)(=O)c1ccc(F)cc1,1260
